Among the data in US20260248860A1, “LIVER DISEASE REGULATORY FORMULATION AND USE THEREOF” (SHANGHAI CELLIVER BIOTECHNOLOGY CO., LTD., priority 2021, published 2026) are inhibition values, retold here.

The structures appear in SMILES notation.

For this assay, the system named is ConA-stimulated mouse spleen cells. The assay can be described thus: ConA-stimulated mouse spleen cell proliferation (CFSE, flow cytometry). The class given is cell-based. As to conditions: final concentration 10 nM, 72 hours, read-out: inhibition rate on the proliferation of spleen cells. On the procedure:
A method for preparing a suspension of mouse spleen cells added with a stimulator was: 1-week-old C57BL/6 mice were sacrificed by neck dislocation, then the spleen was taken, ground with a 200-mesh sieve, and then rinsed with a lymphatic separation fluid, and the separation solution containing lymphocytes was collected, resuspended by using a RPMI-1640 complete medium containing 10% fetal bovine serum and centrifuged under a centrifugal force of 800 g at low temperature for 30 minutes; and after completion of centrifugation, the lymphocyte layer was pipetted, then resuspended with a RPMI-1640 complete medium containing 10% fetal bovine serum, and then centrifuged under a centrifugal force of 250 g for 10 minutes at low temperature. The obtained lymphocyte layer was resuspended with the RPMI-1640 complete medium containing 10% fetal bovine serum again, and added with a concanavalin A(ConA) suspension resuspended with the RPMI-1640 complete medium containing 10% fetal bovine serum as a stimulator. […]

Turning to `C=CC[C@@H]1/C=C(\C)C[C@H](C)C[C@H](OC)[C@H]2O[C@@](O)(C(=O)C(=O)N3CCCC[C@H]3C(=O)O[C@H](/C(C)=C/[C@@H]3CC[C@@H](O)[C@H](OC)C3)[C@H](C)[C@@H](O)CC1=O)[C@H](C)C[C@@H]2OC` [FK506, tacrolimus], the inhibition at 0.01 µM was 82%.
